From patent publication US7094429B2, “Process for preparing tannate liquid and semi-solid dosage forms” (Kiel Laboratories, Inc., priority 2001, dated 2006)

Key:
[1] = Conversion process: active dissolved in supernatant of centrifuged MAS/tannic acid conversion samples; details: for Assay (% Dissolved) 10 mins / Assay (% Dissolved) 20 mins / Assay (% Dissolved) 30 mins: in-situ tannate conversion, centrifuged at 6500 rpm; for Assay (% Dissolved) 10 mins: supernatant after 10 min mixing; for Assay (% Dissolved) 20 mins: supernatant after 20 min mixing; for Assay (% Dissolved) 30 mins: supernatant after 30 min mixing
Protocol: The active solution of carbetapentane citrate is prepared by dissolving 24.4 g of carbetapentane citrate into 60 ml of water. 530 ml of purified water is placed in a mixing tank and 53.7 g of MAS is added in small portions while mixing the water to form a dispersion. Once the dispersion is uniform and lump-free, 46.7 g of tannic acid (TA), (three times that of the free base of the active), is folded into the dispersion using a planetary mixer with a sweep blade. […] The salt solution is then added in small portions, while continuing to stir the MAS/tannic acid dispersion using the planetary mixer. After all of the salt solution is added, the weight is made up to 800 g with purified water. Mixing is continued and 5 g samples of the conversion after ten, twenty and thirty minutes of mixing are taken in a centrifuge tube. The samples are subsequently centrifuged at 6500 rpm and the resulting supernatant solution is assayed for the presence of active. At the end of thirty minutes, a 10 g sample of the conversion is taken for assay of the actives.

[2] = cited from earlier work

Compound	Assay (% Dissolved) 10 mins [1] [%]	Assay (% Dissolved) 20 mins [1] [%]	Assay (% Dissolved) 30 mins [1] [%]	soluble in water [2]	amount of active ingredient present in solution at the ten, twenty and thirty minute mixing times ([1]; in-situ tannate conversion in MAS/tannic acid dispersion)
COc1ccc(CN(CCN(C)C)c2ccccn2)cc1 [Pyrilamine]	0.10	0.10	0.11	–	–
CCN(CC)CCOCCOC(=O)C1(c2ccccc2)CCCC1 [Carbetapentane]	0.08	0.08	0.09	–	–
CNC[C@H](O)c1cccc(O)c1.Cl [Phenylephrine HCI]	–	–	–	about 100.0%	more than 47.0%
CN(C)CCC(c1ccc(Cl)cc1)c1ccccn1 (centres unmarked) [Chlorpheniramine]	0.12	0.13	0.14	–	–
CNC[C@H](O)c1cccc(O)c1 [Phenylephrine]	37.14	47.6	47.6	–	–
